Data reported in ChEMBL document CHEMBL5215012, “Daphnepedunins A-F, Anti-HIV Macrocyclic Daphnane Orthoester Diterpenoids from Daphne pedunculata” (J Nat Prod, 2022).

What was measured:
[1] = tested on: Human immunodeficiency virus 1; assay: Anti-HIV activity against HIV-1 NL4-3 Nanoluc-sec virus infected in human MT4 cells assessed as viral growth inhibition by measuring luciferase activity measured after 3 days post-infection by Nano-Glo luciferase assay; assay type: functional, organism-based; settings: Human immunodeficiency virus 1, NL4-3, MT4, 72 h
MT4 = assay: Cytotoxicity against human MT4 cells assessed as reduction in cell viability by celltiter-glo luminescent cell viability assay; assay type: toxicity, cell-based

Row | Structure (SMILES) | IC50 [1] | CC50 (MT4)
1 | C=C(C)[C@]12C[C@@H](C)[C@]34OC5(CCCCCCC[C@H](C)[C@@H]6[C@@H]3[C@]3(O[C@]6(C)OC3=O)[C@H](O)[C@@]3(CO)O[C@H]3[C@H]4[C@H]1O5)O2 | 187 nM | > 38500 nM
2 | C=C(C)[C@]12C[C@@H](C)[C@]34OC5(CCCCCCC[C@@H](C)[C@@H]6[C@@H]3[C@]3(O[C@]6(C)OC3=O)[C@H](O)[C@@]3(CO)O[C@H]3[C@H]4[C@H]1O5)O2 | 229 nM | 
3 | C=C(C)[C@]12C[C@@H](COC(=O)c3ccccc3)[C@]34OC5(CCCCCCC[C@H](C)[C@@H]6[C@@H]3[C@]3(O[C@]6(C)OC3=O)[C@H](O)[C@@]3(CO)O[C@H]3[C@H]4[C@H]1O5)O2 | 930 nM | 18800 nM
4 | C=C(C)[C@]12C[C@@H](COC(=O)c3ccccc3)[C@@]34OC5(O[C@@H]1[C@@H]3[C@@H]1O[C@]1(CO)[C@@H](O)[C@@]1(O)[C@H]4[C@H]([C@H](C)[C@@H]1OC(=O)c1ccccc1)[C@H](C)CCCCCC[C@H]5O)O2 | 0.15 nM | > 6500 nM
5 | C=C(C)[C@]12C[C@@H](COC(=O)c3ccccc3)[C@@]34OC5(CCCCCCC[C@@H](C)[C@H]6[C@H](C)C(=O)[C@@](O)([C@H](O)[C@@]7(CO)O[C@H]7[C@H]3[C@H]1O5)[C@@H]64)O2 | 71 nM | > 38500 nM
6 | C=C(C)[C@]12C[C@@H](C)[C@@]34O[C@]5(CCCCCCC[C@H](C)[C@H]6[C@H](C)C(=O)[C@@](O)([C@H](O)[C@@]7(CO)O[C@H]7[C@H]3[C@H]1O5)[C@@H]64)O2 | 81.7 nM | 
7 | C=C(C)[C@]12C[C@@H](C)[C@]34OC5(CCCCCCC[C@H](C)[C@@H]6[C@@H]3[C@@](O)(C(=O)[C@@]6(C)O)[C@H](O)[C@@]3(CO)O[C@H]3[C@H]4[C@H]1O5)O2 | 107 nM | 24200 nM
8 | C=C(C)[C@]12C[C@@H](C)[C@]34OC5(CCCCCCC[C@@H](C)[C@@H]6[C@@H]3[C@@](O)(C(=O)[C@@]6(C)O)[C@H](O)[C@@]3(CO)O[C@H]3[C@H]4[C@H]1O5)O2 | 91.9 nM | > 6500 nM
9 | C=C(C)[C@]12C[C@@H](C)[C@@]34OC5(CCCCCCC[C@@H](C)[C@H]6[C@H](C)C(=O)[C@@](O)([C@H](O)[C@@]7(CO)O[C@H]7[C@H]3[C@H]1O5)[C@@H]64)O2 | 38.5 nM | > 6500 nM
10 | C=C(C)[C@]12C[C@@H](C)[C@@]34OC5(CCCCCCCC[C@H]6[C@H](C)C(=O)[C@@](O)([C@H](O)[C@@]7(CO)O[C@H]7[C@H]3[C@H]1O5)[C@@H]64)O2 | 36.3 nM | > 6500 nM
11 | C=C(C)[C@]12C[C@@H](COC(=O)c3ccccc3)[C@@]34OC5(CCCCC[C@@H](O)C[C@@H](C)[C@H]6[C@H](C)C(=O)[C@@](O)([C@H](O)[C@@]7(CO)O[C@H]7[C@H]3[C@H]1O5)[C@@H]64)O2 | 69.2 nM | > 6500 nM
12 | C=C(C)[C@]12C[C@@H](COC(=O)c3ccccc3)[C@]34OC5(CCCCC[C@@H](OC(=O)c6ccccc6)C[C@@H](C)[C@@H]6[C@@H]3[C@]3(O[C@]6(C)OC3=O)[C@H](O)[C@@]3(CO)O[C@H]3[C@H]4[C@H]1O5)O2 | 423 nM | 5300 nM
13 | C=C(C)[C@]12C[C@@H](COC(=O)c3ccccc3)[C@]34OC5(CCCCCCC[C@@H](C)[C@@H]6[C@@H]3[C@]3(O[C@]6(C)OC3=O)[C@H](O)[C@@]3(CO)O[C@H]3[C@H]4[C@H]1O5)O2 | 994 nM | 21700 nM
